The target of one assay is T1, mouse TREX1 (Mus musculus, UniProt Q91XB0).
T1 construct: N-terminally His-Tev tagged full length mouse TREX1; made in house; host or cells: E. coli
T1 sequence (Q91XB0 1-314): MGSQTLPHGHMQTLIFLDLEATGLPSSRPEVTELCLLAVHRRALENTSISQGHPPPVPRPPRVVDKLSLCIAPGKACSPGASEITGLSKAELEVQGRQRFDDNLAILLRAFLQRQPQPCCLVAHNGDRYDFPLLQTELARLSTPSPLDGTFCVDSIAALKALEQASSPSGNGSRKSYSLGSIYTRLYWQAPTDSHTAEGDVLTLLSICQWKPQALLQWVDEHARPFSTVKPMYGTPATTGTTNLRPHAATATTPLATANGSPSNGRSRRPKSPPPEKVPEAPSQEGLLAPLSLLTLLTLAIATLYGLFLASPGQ
Nature of the assay: mTREX1 Biochemical Assay (fluorescence, dsDNA substrate degradation). The following applies: full length mouse TREX1, 4 h pre-incubation, 18 h reaction at 25° C. In a few lines: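 Full-length His-Tev mouse TREX1 (E. coli) was preincubated with compound 4 h at 25 °C, then run 18 h at 25 °C. Finals were 6 pM enzyme, 60 nM TEX615/quencher dsDNA, 1% DMSO, pH 7.4 Tris with 5 mM MgCl2. After EDTA quench, fluorescence was read at 615 nm; IC50 by four-parameter fit against EDTA and no-inhibitor controls.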

The target of the next assay is T2, human TREX1 (Homo sapiens, UniProt Q9NSU2).
T2 construct: N-terminally His-Tev tagged full length human TREX1; made in house; host or cells: E. coli
T2 sequence (Q9NSU2 1-314): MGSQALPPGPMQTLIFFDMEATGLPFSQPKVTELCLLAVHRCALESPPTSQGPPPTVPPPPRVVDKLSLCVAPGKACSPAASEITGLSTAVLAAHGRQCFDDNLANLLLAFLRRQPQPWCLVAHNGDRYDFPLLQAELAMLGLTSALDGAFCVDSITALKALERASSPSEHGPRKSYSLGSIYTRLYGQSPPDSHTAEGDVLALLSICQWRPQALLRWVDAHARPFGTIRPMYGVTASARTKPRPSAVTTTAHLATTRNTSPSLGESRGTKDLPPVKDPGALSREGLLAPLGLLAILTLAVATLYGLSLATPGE
In words: TREX1 kinetics assays (TR-FRET association and dissociation with biotinylated probe). The format is binding. The note with it: for koff / kon: hTREX1, 25° C., global fit Kintek Explorer; for Kd / residence time: hTREX1, kinetic data. The procedure:
Compound binding kinetics were assessed using a pair of TR-FRET assays which measure the proportion of protein bound to a biotinylated TREX1 inhibitor (“probe”).
N-terminally His-Tev tagged full length human TREX1 (expressed in E. coli and purified in house), complexed with Eu-W 1024-anti-6×His (“Eu”; PerkinElmer) in reaction buffer (50 mM Tris, 150 mM NaCl, 2 mM DTT, 0.1 mg/mL BSA, 0.01% (w/v) Tween-20, 5 mM MgCl2, pH 7.4) was combined with an equal volume of test compound in reaction buffer and incubated at 25° C. Concentrations at this stage were 1 nM TREX1/Eu complex, and four concentrations of compound (diluted from 10 mM stocks in 100% DMSO). At defined time points, 18 μL of this mixture was withdrawn and combined with 2 p L probe to a final concentration of 1 μM probe. After incubating for 30 seconds, 18 μL was withdrawn and combined with 2 μL streptavidin-allophycocyanin (“SA-APC”; PerkinElmer) to a final concentration of 1.5 μM SA-APC. Fifteen μL of this mixture was then immediately transferred to a 384-well Black ProxiPlate Plus (PerkinElmer) and read in an EnVision plate reader (PerkinElmer) measuring fluorescence at 615 nm and 665 nm following excitation w/337 nm laser light. Final concentrations were 0.8 nM TREX1/Eu complex, 0.9 μM probe, and 1.5 μM SA-APC.
N-terminally His-Tev tagged full length human TREX1 (expressed in E. coli and purified in house), complexed with Eu-W1024-anti-6×His (“Eu”; PerkinElmer) in reaction buffer (50 mM Tris, 150 mM NaCl, 2 mM DTT, 0.1 mg/mL BSA, 0.01% (w/v) Tween-20, 5 mM MgCl2, pH 7.4) was combined with an equal volume of test compound in reaction buffer. Concentrations at this stage were 100 nM TREX1/Eu complex and 100 nM test compound (diluted from 10 mM stocks in 100% DMSO). Following an equilibration period of at least an hour at 25° C., this mixture was diluted 100-fold into reaction buffer containing 1 μM probe, and incubated at 25° C. At defined time points, 36 μL of the reaction mixture was withdrawn and combined with 4 μL streptavidin-allophycocyanin (“SA-APC”; PerkinElmer) to a final concentration of 1.5 μM SA-APC. Fifteen μL of this mixture was then immediately transferred to duplicate wells of a 384-well Black ProxiPlate Plus (PerkinElmer) and read in an EnVision plate reader (PerkinElmer) measuring fluorescence at 615 nm and 665 nm following excitation w/ 337 nm laser light.
The TR-FRET signal, a ratio of 665 nm/615 nm emitted light, was converted to fraction enzyme bound to test compound by normalizing to low signal (no enzyme or test compound) and high signal (no test compound) controls. Data from both association and dissociation experiments were fitted globally using Kintek Explorer software, which computes the rate constants directly.

Bounds are passed on as bounds.

With `C[C@H](c1nc(C(=O)Nc2cnoc2)c(O)c(=O)n1C)[C@H](c1ccccc1)c1ccccc1Cl` (single isomer, unassigned) [Example 2 Isomer 3, 2-(1-(2-chlorophenyl)-1-phenylpropan-2-yl)-5-hydroxy-N-(isoxazol-4-yl)-1-methyl-6-oxo-1,6-dihydropyrimidine-4-carboxamide], at mouse TREX1, the half-inhibitory concentration (IC50) was in the range of 1 to 10 nM. On human TREX1, this compound had an off-rate (koff) of 5.48e-05 s⁻¹, a kon of 159000 M⁻¹ s⁻¹, a Kd of 0.345 nM and a residence time of 304 min.
Consider `Cn1c([C@H](C(c2ccccc2)c2ccccc2)C(F)(F)F)nc(C(=O)Nc2cnoc2)c(O)c1=O` (single isomer, unassigned) [Example 20 Isomer 1, 5-Hydroxy-N-(isoxazol-4-yl)-1-methyl-6-oxo-2-(1,1,1-trifluoro-3,3-diphenylpropan-2-yl)-1,6-dihydropyrimidine-4-carboxamide], for which the IC50 against mouse TREX1 is > 10 nM.
Compound `CC(c1nc(C(=O)Nc2cnoc2)c(O)c(=O)n1C)C(c1ccccc1)c1ccccc1C#N` (single isomer, unassigned) [Example 3 Isomer 4] displayed an IC50 against mouse TREX1 of 1 to 10 nM. At human TREX1, this compound showed a koff of 3.6e-05 s⁻¹, a kon of 164000 M⁻¹ s⁻¹, a Kd of 0.219 nM and a residence time of 463 min.
As for `CC(c1nc(C(=O)Nc2cnoc2)c(O)c(=O)n1C)C(c1ccccc1Cl)c1ccccc1C#N` (single isomer, unassigned) [Example 10 Isomer 1], the IC50 on mouse TREX1 is < 1 nM. On human TREX1, this compound showed a koff of 3.15e-05 s⁻¹, a kon of 448000 M⁻¹ s⁻¹, a Kd of 0.07 nM and a residence time of 529 min.
For the compound `CC(c1nc(C(=O)Nc2cnoc2)c(O)c(=O)n1C)C(c1ccccc1)c1ccccc1` (single isomer, unassigned) [Example 1 Isomer 2, 2-(1,1-diphenylpropan-2-yl)-5-hydroxy-N-(isoxazol-4-yl)-1-methyl-6-oxo-1,6-dihydro pyrimidine-4-carboxamide], the IC50 on mouse TREX1 was > 10 nM. On human TREX1, the koff was 0.000192 s⁻¹, the kon is 50300 M⁻¹ s⁻¹, the Kd stood at 3.8 nM and the residence time is 87 min.
`CC(c1nc(C(=O)Nc2cnoc2)c(O)c(=O)n1C)C(c1ccccc1)c1cc(C(=O)N(C)C)ccc1C#N` (single isomer, unassigned) [Example 17 Isomer 3] showed an IC50 on mouse TREX1 of 1 to 10 nM.
Take `Cn1c([C@@H](C(c2ccccc2C#N)c2ccccc2C#N)C(F)(F)F)nc(C(=O)Nc2cnoc2)c(O)c1=O` (single isomer, unassigned) [Example 21 Isomer 1, 2-(3,3-bis(2-cyanophenyl)-1,1,1-trifluoropropan-2-yl)-5-hydroxy-N-(isoxazol-4-yl)-1-methyl-6-oxo-1,6-dihydropyrimidine-4-carboxamide]: on mouse TREX1, the IC50 was 1 to 10 nM.
With `CC(c1nc(C(=O)Nc2cnoc2)c(O)c(=O)n1C)C(c1ccccc1C#N)c1ccccc1C#N` (single isomer, unassigned) [Example 4 Isomer 2], at mouse TREX1, the IC50 is < 1 nM. On human TREX1, this compound gave a koff of 3.83e-05 s⁻¹, an on-rate (kon) of 907000 M⁻¹ s⁻¹, a Kd of 0.042 nM and a residence time of 435 min.
For the compound `CC(c1nc(C(=O)Nc2cnoc2)c(O)c(=O)n1C)C(c1ccccc1)c1ccc(Cl)cc1C#N` (single isomer, unassigned) [Example 9 Isomer 4], at mouse TREX1, the IC50 was < 1 nM. On human TREX1, this compound gave a koff of 2.07e-05 s⁻¹, a kon of 178000 M⁻¹ s⁻¹, a Kd of 0.116 nM and a residence time of 806 min.
As for `CC(c1nc(C(=O)Nc2cnoc2)c(O)c(=O)n1C)C(c1ccccc1)c1ccccc1` (single isomer, unassigned) [Example 1 Isomer 1, 2-(1,1-diphenylpropan-2-yl)-5-hydroxy-N-(isoxazol-4-yl)-1-methyl-6-oxo-1,6-dihydro pyrimidine-4-carboxamide], the IC50 against mouse TREX1 is > 10 nM.
At mouse TREX1, `CC(c1nc(C(=O)Nc2cnoc2)c(O)c(=O)n1C)C(c1ccccc1)c1cc(Cl)ccc1C#N` (single isomer, unassigned) [Example 8 Isomer 2] registered an IC50 of 1 to 10 nM. At human TREX1, this compound gave a koff of 4.17e-05 s⁻¹, a kon of 116000 M⁻¹ s⁻¹, a Kd of 0.361 nM and a residence time of 400 min.
For `CC(c1nc(C(=O)Nc2cnoc2)c(O)c(=O)n1C)C(c1ccccc1)c1cc(F)ccc1C#N` (single isomer, unassigned) [Example 6 Isomer 4] the same measures were 1 to 10 nM, 3.37e-05 s⁻¹, 173000 M⁻¹ s⁻¹, 0.194 nM and 495 min.
Consider `C[C@H](c1nc(C(=O)Nc2cnoc2)c(O)c(=O)n1C)[C@H](c1ccccc1)c1ccccc1C(F)(F)F` (single isomer, unassigned) [Example 14 Isomer 2, 5-Hydroxy-N-(isoxazol-4-yl)-1-methyl-6-oxo-2-(1-phenyl-1-(2-(trifluoromethyl)phenyl)propan-2-yl)-1,6-dihydropyrimidine-4-carboxamide], for which, on mouse TREX1, the IC50 was > 10 nM.
Take `C[C@H](c1nc(C(=O)Nc2cnoc2)c(O)c(=O)n1C)C(c1ccccc1Cl)c1ccccc1Cl` (single isomer, unassigned) [Example 15 Isomer 1, 2-(1,1-bis(2-chlorophenyl)propan-2-yl)-5-hydroxy-N-(isooxazol-4-yl)-1-methyl-6-oxo-1,6-dihydropyrimidine-4-carboxamide]: the IC50 against mouse TREX1 is < 1 nM. For the same compound, on human TREX1, the koff was 4.77e-05 s⁻¹, the kon was 260000 M⁻¹ s⁻¹, the Kd stood at 0.183 nM and the residence time amounted to 350 min.
With `CC(c1nc(C(=O)Nc2cnoc2)c(O)c(=O)n1C)C(c1cc(F)cc(F)c1)c1ccccc1C#N` (single isomer, unassigned) [Example 11 Isomer 3], the concentration for half-maximal inhibition (IC50) against mouse TREX1 was < 1 nM. Further, on human TREX1, the koff was 1.92e-05 s⁻¹, the kon is 257000 M⁻¹ s⁻¹, binding was put at a Kd of 0.075 nM and the residence time came to 870 min.

For the origin of these results see patent US20240262814A1, “MODULATORS OF TREX1” (Constellation Pharmaceuticals, Inc., priority 2021, published 2024).
